The target of this assay is T1, Human orexin receptor type 2 (Homo sapiens, UniProt O43614).
T1 construct: expressed in transfected cells; host or cells: CHO cells (transient expression)
T1 sequence (O43614 1-444): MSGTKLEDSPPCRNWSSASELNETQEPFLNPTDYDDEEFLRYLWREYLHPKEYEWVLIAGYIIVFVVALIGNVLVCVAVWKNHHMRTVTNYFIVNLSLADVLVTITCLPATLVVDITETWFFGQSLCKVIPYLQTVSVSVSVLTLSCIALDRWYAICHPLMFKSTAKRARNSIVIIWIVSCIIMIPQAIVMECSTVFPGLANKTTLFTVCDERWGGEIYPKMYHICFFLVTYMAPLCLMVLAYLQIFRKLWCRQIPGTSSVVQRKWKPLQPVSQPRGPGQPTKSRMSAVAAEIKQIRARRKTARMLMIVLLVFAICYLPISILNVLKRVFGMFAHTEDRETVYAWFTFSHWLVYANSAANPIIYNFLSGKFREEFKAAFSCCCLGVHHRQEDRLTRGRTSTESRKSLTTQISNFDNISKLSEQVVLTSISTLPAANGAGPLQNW
In words: Test 1: Evaluation of agonist activity for orexin receptor type 2 (aequorin luminescence, intracellular calcium mobilization in CHO cells). Format: cell-based. Conditions: relative percentage of luminescence for the luminescence (100%) of Orexin A (100 pM); CHO cells transiently expressing human orexin receptor type 2 and apoaequorin; Orexin A Lot. 641114. The method, boiled down:
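CHO cells transiently expressing human OX2 receptor and apoaequorin, seeded 16-22 h, loaded with 1 μM coelenterazine hcp for 2 h at room temperature. Compound added in Hanks/20 mM HEPES/0.1% BSA, 0.1% DMSO final, and calcium luminescence measured. Activity expressed as percent of the 100 pM Orexin A response.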
In general terms: A change in cytosolic calcium serves as a functional read-out for many receptors and channels.

In the case of `CC(C)N1CCN([C@H]2CCCC(F)(F)[C@@H]2NC(=O)N2CCC(C)(c3noc([C@@H]4C[C@@H]4F)n3)CC2)CC1` [Example 66, N-{(1R,6S)-2,2-difluoro-6-[4-(propan-2-yl)piperazin-1-yl]cyclohexyl}-4-{5-[(1S,2S)-2-fluorocyclopropyl]-1,2,4-oxadiazol-3-yl}-4-methylpiperidine-1-carboxamide], the “agonist activity (%)” value was found to be 144%. As to `Cc1ccc(C2(C)CCN(C(=O)N[C@@H]3[C@@H](O[C@@H]4CCN(C(C)C)C4)CCCC3(F)F)CC2)cc1` [Example 67, N-[(1R,6S)-2,2-difluoro-6-{[(3R)-1-(propan-2-yl)pyrrolidin-3-yl]oxy}cyclohexyl]-4-methyl-4-(4-methylphenyl)piperidine-1-carboxamide], the “agonist activity (%)” value was found to be 175%. For `CC(C)N1CCN([C@H]2CCCC(F)(F)[C@@H]2NC(=O)N2CCC(C)(c3noc([C@H]4C[C@H]4C)n3)CC2)CC1` [Example 68, N-{(1R,6S)-2,2-difluoro-6-[4-(propan-2-yl)piperazin-1-yl]cyclohexyl}-4-methyl-4-{5-[(1S,2R)-2-methylcyclopropyl]-1,2,4-oxadiazol-3-yl}piperidine-1-carboxamide], the “agonist activity (%)” value was 156%.

`CC(C)N1CCN([C@H]2CCCC(F)(F)[C@@H]2NC(=O)N2CCC(C)(c3noc([C@@H]4C[C@@H]4C)n3)CC2)CC1` [Example 69, N-{(1R,6S)-2,2-difluoro-6-[4-(propan-2-yl)piperazin-1-yl]cyclohexyl}-4-methyl-4-{5-[(1R,2S)-2-methylcyclopropyl]-1,2,4-oxadiazol-3-yl}piperidine-1-carboxamide]: the “agonist activity (%)” value was found to be 161%. For the molecule `CC(C)N1CCN([C@H]2CCCC(F)(F)[C@@H]2NC(=O)N2CCC(C)(c3noc(CC(F)(F)F)n3)CC2)CC1` [Example 70, N-{(1R,6S)-2,2-difluoro-6-[4-(propan-2-yl)piperazin-1-yl]cyclohexyl}-4-methyl-4-[5-(2,2,2-trifluoroethyl)-1,2,4-oxadiazol-3-yl]piperidine-1-carboxamide], the “agonist activity (%)” value is recorded as 141%. With `CC(C)N1CC[C@H](O[C@H]2CCCC(F)(F)[C@@H]2NC(=O)N2CCC(C)(c3noc(C4CC4)n3)CC2)C1` [Example 71, 4-(5-cyclopropyl-1,2,4-oxadiazol-3-yl)-N-[(1R,6S)-2,2-difluoro-6-{[(3S)-1-(propan-2-yl)pyrrolidin-3-yl]oxy}cyclohexyl]-4-methylpiperidine-1-carboxamide], the “agonist activity (%)” value is on record as 199%. With `CC(C)N1CC[C@H](O[C@H]2CCCC(F)(F)[C@@H]2NC(=O)N2CCC(C)(c3noc([C@@H]4C[C@@H]4F)n3)CC2)C1` [Example 72, N-[(1R,6S)-2,2-difluoro-6-{[(3S)-1-(propan-2-yl)pyrrolidin-3-yl]oxy}cyclohexyl]-4-{5-[(1S,2S)-2-fluorocyclopropyl]-1,2,4-oxadiazol-3-yl}-4-methylpiperidine-1-carboxamide], the “agonist activity (%)” value turned out to be 146%.

For the molecule `CC(C)N1CC[C@@H](O[C@H]2CCCC(F)(F)[C@@H]2NC(=O)N2CCC(C)(c3noc([C@@H]4C[C@@H]4F)n3)CC2)C1` [Example 73, N-[(1R,6S)-2,2-difluoro-6-{[(3R)-1-(propan-2-yl)pyrrolidin-3-yl]oxy}cyclohexyl]-4-{5-[(1S,2S)-2-fluorocyclopropyl]-1,2,4-oxadiazol-3-yl}-4-methylpiperidine-1-carboxamide], the “agonist activity (%)” value amounted to 185%. Under `CC(C)N1CC[C@H](O[C@H]2CCCC(F)(F)[C@@H]2NC(=O)N2CCC(C)(c3noc([C@@H]4C[C@@H]4C)n3)CC2)C1` [Example 74, N-[(1R,6S)-2,2-difluoro-6-{[(3S)-1-(propan-2-yl)pyrrolidin-3-yl]oxy}cyclohexyl]-4-methyl-4-(5-[(1R,2S)-2-methylcyclopropyl]-1,2,4-oxadiazol-3-yl)piperidine-1-carboxamide] stands 174%; under `CC(C)N1C[C@H](O[C@H]2CCCC(F)(F)[C@@H]2NC(=O)N2CCC(C)(c3noc(C4CC4)n3)CC2)[C@@H](F)C1` [Example 75, 4-(5-cyclopropyl-1,2,4-oxadiazol-3-yl)-N-[(1R,6S)-2,2-difluoro-6-{[(3S,4S)-4-fluoro-1-(propan-2-yl)pyrrolidin-3-yl]oxy}cyclohexyl]-4-methylpiperidine-1-carboxamide], 141%; under `CC(C)N1C[C@@H](O[C@H]2CCCC(F)(F)[C@@H]2NC(=O)N2CCC(C)(c3noc(C4CC4)n3)CC2)C(F)(F)C1` [Example 76, 4-(5-cyclopropyl-1,2,4-oxadiazol-3-yl)-N-[(1R,6S)-6-{[(3R)-4,4-difluoro-1-(propan-2-yl)pyrrolidin-3-yl]oxy}-2,2-difluorocyclohexyl]-4-methylpiperidine-1-carboxamide], 145%. Under `CC(C)N1CCN([C@H]2CCCC(F)(F)[C@@H]2NC(=S)N2CCC(C)(c3noc(C4CC4)n3)CC2)CC1` [Example 80, 4-(5-cyclopropyl-1,2,4-oxadiazol-3-yl)-N-{(1R,6S)-2,2-difluoro-6-[4-(propan-2-yl)piperazin-1-yl]cyclohexyl}-4-methylpiperidine-1-carbothioamide] stands 178%.

Source of the values: US12162872B2, “Cycloalkylurea derivative” (Sumitomo Pharma Co., Ltd., priority 2019, dated 2024).
